Molecules are shown by their SMILES. Read-outs that look alike come from different tables or passages of the source.

A word on the IC50: it is the point on the concentration scale where inhibition reaches its midpoint.

The target of one experiment is human plasma kallikrein (Homo sapiens, UniProt P03952). The experiment is described as follows: Kallikrein inhibition assay (FLINT) utilizing a quenched AMC peptide substrate Z-Gly-Pro-Arg-AMC. In kind it is biochemical. Particulars: kinetic (KIN) reads, read-out: Kallikrein KIN Inh IC50. An outline of the steps: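 Human plasma kallikrein (2 nM final) pre-incubated 30 min with compound (11-point 3-fold series, top 1 μM, 2% DMSO), then 50 μM Z-Gly-Pro-Arg-AMC added. Buffer 50 mM Tris pH 7.5, 100 mM NaCl, 5 mM CaCl2, BSA, CHAPS. AMC fluorescence (340/440 nm) read kinetically over 30 min at room temperature, IC50 by 4-parameter logistic fit.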

The target of the next experiment is Factor XIa (Homo sapiens, UniProt P03951). Nature of the experiment: Factor XIa inhibition assay (FLINT) utilizing a fluorophore-quencher pair peptide substrate 5Fam-[…]-K5Tamra. The settings on record: kinetic (KIN) reads; values in nM; read-out: FXIa KIN Inh IC50. In kind it is biochemical. In a few lines:
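FXIa was preincubated with compound for 30 min at room temperature in Tris pH 7.5 buffer containing CaCl2, BSA and CHAPS, then reacted with 15 μM quenched 5Fam/Tamra peptide substrate. Fluorescence (485/520 nm) was read kinetically every 5 min for 30 min.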

human plasma kallikrein, sequence (P03952 391-638 limits assumed): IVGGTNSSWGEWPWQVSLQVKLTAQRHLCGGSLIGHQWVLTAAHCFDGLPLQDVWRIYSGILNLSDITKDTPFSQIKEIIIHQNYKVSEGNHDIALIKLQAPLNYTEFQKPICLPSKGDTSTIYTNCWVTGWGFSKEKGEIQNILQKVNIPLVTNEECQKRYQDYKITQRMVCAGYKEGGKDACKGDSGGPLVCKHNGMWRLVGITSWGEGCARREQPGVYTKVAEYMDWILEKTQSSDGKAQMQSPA
human plasma kallikrein, sequence (P03952 20-390 partner limits assumed): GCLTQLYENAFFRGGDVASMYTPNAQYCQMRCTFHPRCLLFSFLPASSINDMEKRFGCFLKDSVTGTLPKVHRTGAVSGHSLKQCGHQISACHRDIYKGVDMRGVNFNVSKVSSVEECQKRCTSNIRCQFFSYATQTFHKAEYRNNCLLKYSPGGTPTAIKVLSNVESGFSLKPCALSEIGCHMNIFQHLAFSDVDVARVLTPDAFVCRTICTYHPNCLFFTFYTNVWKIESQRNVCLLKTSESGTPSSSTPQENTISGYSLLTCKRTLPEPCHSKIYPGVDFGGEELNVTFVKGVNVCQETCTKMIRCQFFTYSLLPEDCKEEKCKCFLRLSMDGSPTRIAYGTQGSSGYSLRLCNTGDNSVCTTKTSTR
Factor XIa, sequence (P03951 388-625 limits assumed): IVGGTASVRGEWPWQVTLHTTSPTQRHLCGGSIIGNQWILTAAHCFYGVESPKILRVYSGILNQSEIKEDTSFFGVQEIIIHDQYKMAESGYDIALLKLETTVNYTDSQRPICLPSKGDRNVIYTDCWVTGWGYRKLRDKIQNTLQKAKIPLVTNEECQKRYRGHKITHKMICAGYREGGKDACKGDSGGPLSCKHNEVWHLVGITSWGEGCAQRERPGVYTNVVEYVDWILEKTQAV
Factor XIa, sequence (P03951 19-387 partner limits assumed): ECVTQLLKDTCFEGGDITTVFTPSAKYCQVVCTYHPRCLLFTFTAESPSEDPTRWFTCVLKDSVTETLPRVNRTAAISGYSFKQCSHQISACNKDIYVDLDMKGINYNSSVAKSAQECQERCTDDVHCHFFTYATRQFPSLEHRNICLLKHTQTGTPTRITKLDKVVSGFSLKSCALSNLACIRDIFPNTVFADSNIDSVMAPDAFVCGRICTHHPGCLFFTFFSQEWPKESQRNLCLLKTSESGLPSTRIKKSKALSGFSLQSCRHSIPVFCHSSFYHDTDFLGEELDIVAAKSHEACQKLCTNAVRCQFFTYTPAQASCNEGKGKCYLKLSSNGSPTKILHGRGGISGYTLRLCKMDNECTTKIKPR

`C[C@H]1C[C@H](c2ncc(-c3cnns3)[nH]2)n2c1nc(-c1c(-n3cnnn3)ccc(Cl)c1F)cc2=O` (relative stereo) [Example 106, (6*R,8*S)-6-(5-(1,2,3-Thiadiazol-5-yl)-1H-imidazol-2-yl)-2-(3-chloro-2-fluoro-6-(1H-tetrazol-1-yl)phenyl)-8-methyl-7,8-dihydropyrrolo[1,2-a]pyrimidin-4(6H)-one]: the IC50 at human plasma kallikrein (unit μM) is 6.4 µM; at Factor XIa it was 933 nM.

Turning to `COC(=O)Nc1ccc(-c2cnc([C@@H]3C[C@@H](C)c4nc(-c5c(-n6cnnn6)ccc(Cl)c5F)cc(=O)n43)[nH]2)cc1` (stereo in doubt) [Example 126, Methyl (4-(2-((6*S,8*R)-2-(3-Chloro-2-fluoro-6-(1H-tetrazol-1-yl)phenyl)-8-methyl-4-oxo-4,6,7,8-tetrahydropyrrolo[1,2-a]pyrimidin-6-yl)-1H-imidazol-5-yl)phenyl)carbamate], the IC50 is 0.0034 µM at human plasma kallikrein (values in nM) and 0.3 nM at Factor XIa.

As for `C[C@H]1C[C@@H](c2ncc(-c3cnc(F)c(N)c3)[nH]2)n2c1cc(-c1c(-n3cnnn3)ccc(Cl)c1F)cc2=O` [Example 21, (1S,3S)-3-(5-(5-Amino-6-fluoropyridin-3-yl)-1H-imidazol-2-yl)-7-(3-chloro-2-fluoro-6-(1H-tetrazol-1-yl)phenyl)-1-methyl-2,3-dihydroindolizin-5(1H)-one], the half-inhibitory concentration (IC50) at human plasma kallikrein (values in nM) was 0.34 µM; at Factor XIa, 64.4 nM.

`C[C@@H]1C[C@H](c2ncc(-c3ccc4c(c3)CC(=O)N4)[nH]2)n2c1nc(-c1c(-n3cnnn3)ccc(Cl)c1F)cc2=O` (stereo in doubt) [Example 112, (6*R,8*R)-2-(3-Chloro-2-fluoro-6-(1H-tetrazol-1-yl)phenyl)-8-methyl-6-(5-(2-oxoindolin-5-yl)-1H-imidazol-2-yl)-7,8-dihydropyrrolo[1,2-a]pyrimidin-4(6H)-one]: the figures for the 50% inhibitory concentration (IC50) at human plasma kallikrein (values in nM) and at Factor XIa were 0.0078 µM and 1.6 nM, respectively.

For `Cc1nc(N)c(F)cc1-c1cnc([C@H]2C[C@H](C)c3nc(-c4c(-n5cnnn5)ccc(Cl)c4F)cc(=O)n32)[nH]1` (relative stereo) [Example 129, (6*R,8*S)-6-(5-(6-Amino-5-fluoro-2-methylpyridin-3-yl)-1H-imidazol-2-yl)-2-(3-chloro-2-fluoro-6-(1H-tetrazol-1-yl)phenyl)-8-methyl-7,8-dihydropyrrolo[1,2-a]pyrimidin-4(6H)-one], the 50% inhibitory concentration (IC50) was 1.6 µM on human plasma kallikrein (unit μM) and 168 nM at Factor XIa.

In the case of `C[C@H]1C[C@@H](c2ncc(-c3cnc(N)s3)[nH]2)n2c1cc(-c1c(-n3cnnn3)ccc(Cl)c1F)cc2=O` [Example 23, (1S,3S)-3-(5-(2-Aminothiazol-5-yl)-1H-imidazol-2-yl)-7-(3-chloro-2-fluoro-6-(1H-tetrazol-1-yl)phenyl)-1-methyl-2,3-dihydroindolizin-5(1H)-one], the results for the IC50 on human plasma kallikrein (values in nM) and at Factor XIa were 0.24 µM and 5 nM, respectively.

For the compound `Cc1nc(N)sc1-c1cnc([C@@H]2CC3(CC3)c3nc(-c4c(-n5cnnn5)ccc(Cl)c4F)cc(=O)n32)[nH]1` [Example 131, (S)-6′-(5-(2-Amino-4-methylthiazol-5-yl)-1H-imidazol-2-yl)-2′-(3-chloro-2-fluoro-6-(1H-tetrazol-1-yl)phenyl)-6′,7′-dihydro-4′H-spiro[cyclopropane-1,8′-pyrrolo[1,2-a]pyrimidin]-4′-one], the IC50 at human plasma kallikrein (values in nM) worked out at 0.669 µM; on Factor XIa, 92.2 nM.

With `C[C@@H]1C[C@H](c2ncc(-c3cn[nH]c3)[nH]2)n2c1nc(-c1c(-n3cnnn3)ccc(Cl)c1F)cc2=O` (stereo in doubt) [Example 108, (6*R,8*R)-6-(5-(1H-Pyrazol-4-yl)-1H-imidazol-2-yl)-2-(3-chloro-2-fluoro-6-(1H-tetrazol-1-yl)phenyl)-8-methyl-7,8-dihydropyrrolo[1,2-a]pyrimidin-4(6H)-one], the IC50 on human plasma kallikrein (unit μM) was 7.1 µM; on Factor XIa it was 90.3 nM.

With `C[C@@H]1C[C@@H](c2ncc(-c3ccc(N)nc3F)[nH]2)n2c1cc(-c1c(-n3cnnn3)ccc(Cl)c1F)cc2=O` [Example 66, (1R,3S)-3-(5-(6-Amino-2-fluoropyridin-3-yl)-1H-imidazol-2-yl)-7-(3-chloro-2-fluoro-6-(1H-tetrazol-1-yl)phenyl)-1-methyl-2,3-dihydroindolizin-5(1H)-one], the IC50 at human plasma kallikrein (values in nM) turned out to be 0.0036 µM; on Factor XIa it was 0.4 nM.

In the case of `COc1nc(N)cnc1-c1cnc([C@@H]2C[C@H](C)c3nc(-c4c(-n5cnnn5)ccc(Cl)c4F)cc(=O)n32)[nH]1` (relative stereo) [Example 84, (6*S,8*S)-6-(5-(5-Amino-3-methoxypyrazin-2-yl)-1H-imidazol-2-yl)-2-(3-chloro-2-fluoro-6-(1H-tetrazol-1-yl)phenyl)-8-methyl-7,8-dihydropyrrolo[1,2-a]pyrimidin-4(6H)-one], the IC50 at human plasma kallikrein (values in nM) turned out to be 0.0319 µM; at Factor XIa, 5.7 nM.

For the compound `C[C@@H]1C[C@@H](c2ncc(-c3cn[nH]c3)[nH]2)n2c1nc(-c1c(-n3cnnn3)ccc(Cl)c1F)cc2=O` (stereo in doubt) [Example 111, (6*S,8*R)-6-(5-(1H-Pyrazol-4-yl)-1H-imidazol-2-yl)-2-(3-chloro-2-fluoro-6-(1H-tetrazol-1-yl)phenyl)-8-methyl-7,8-dihydropyrrolo[1,2-a]pyrimidin-4(6H)-one], the values for the IC50 at human plasma kallikrein (values in nM) and on Factor XIa were 0.145 µM and 22.6 nM, respectively.

In the case of `Nc1ccc(-c2cnc([C@@H]3CC4(CC4)c4nc(-c5c(-n6cnnn6)ccc(Cl)c5F)cc(=O)n43)[nH]2)c(F)n1` [Example 134, (S)-6′-(5-(6-Amino-2-fluoropyridin-3-yl)-1H-imidazol-2-yl)-2′-(3-chloro-2-fluoro-6-(1H-tetrazol-1-yl)phenyl)-6′,7′-dihydro-4′H-spiro[cyclopropane-1,8′-pyrrolo[1,2-a]pyrimidin]-4′-one], the IC50 at human plasma kallikrein (values in nM) stood at 0.0168 µM; on Factor XIa, 1.2 nM.

Turning to `CNC(=O)c1cc(-c2cnc([C@@H]3C[C@H](C)c4cc(-c5c(-n6cnnn6)ccc(Cl)c5F)cc(=O)n43)[nH]2)ccn1` [Example 13, 4-(2-((1S,3S)-7-(3-Chloro-2-fluoro-6-(1H-tetrazol-1-yl)phenyl)-1-methyl-5-oxo-1,2,3,5-tetrahydroindolizin-3-yl)-1H-imidazol-5-yl)-N-methylpicolinamide], the IC50 worked out at 0.0369 µM at human plasma kallikrein (values in nM) and 12.7 nM on Factor XIa.

In the case of `C[C@H]1C[C@@H](c2ncc(-c3ccc4c(=O)cc[nH]c4c3)[nH]2)n2c1nc(-c1c(-n3cnnn3)ccc(Cl)c1F)cc2=O` (relative stereo) [Example 102, 7-(2-((6*S,8*S)-2-(3-Chloro-2-fluoro-6-(1H-tetrazol-1-yl)phenyl)-8-methyl-4-oxo-4,6,7,8-tetrahydropyrrolo[1,2-a]pyrimidin-6-yl)-1H-imidazol-5-yl)quinolin-4(1H)-one], the IC50 on human plasma kallikrein (values in nM) is 0.446 µM; at Factor XIa, 18.2 nM.

Take `Cc1c(-c2cnc([C@@H]3C[C@H](C)c4cc(-c5c(-n6cnnn6)ccc(Cl)c5F)cc(=O)n43)[nH]2)ccnc1C#N` (relative stereo) [Example 33, 4-(2-((1S*,3S*)-7-(3-Chloro-2-fluoro-6-(1H-tetrazol-1-yl)phenyl)-1-methyl-5-oxo-1,2,3,5-tetrahydroindolizin-3-yl)-1H-imidazol-5-yl)-3-methylpicolinonitrile]: the IC50 is 0.152 µM on human plasma kallikrein (values in nM) and 6.8 nM at Factor XIa.

With `Cc1cc(-c2cnc([C@H]3C[C@H](C)c4cc(-c5c(-n6cnnn6)ccc(Cl)c5F)cc(=O)n43)[nH]2)ccn1` (stereo in doubt) [Example 42, (1*S,3*R)-7-(3-Chloro-2-fluoro-6-(1H-tetrazol-1-yl)phenyl)-1-methyl-3-(5-(2-methylpyridin-4-yl)-1H-imidazol-2-yl)-2,3-dihydroindolizin-5(1H)-one], the IC50 is 0.033 µM on human plasma kallikrein (values in nM) and 3.3 nM at Factor XIa.

Consider `C[C@H]1C[C@@H](c2ncc(-c3ccc(NS(C)(=O)=O)cc3)[nH]2)n2c1cc(-c1c(-n3cnnn3)ccc(Cl)c1F)cc2=O` [Example 11, N-(4-(2-((1S,3S)-7-(3-chloro-2-fluoro-6-(1H-tetrazol-1-yl)phenyl)-1-methyl-5-oxo-1,2,3,5-tetrahydroindolizin-3-yl)-1H-imidazol-5-yl)phenyl)methanesulfonamide], for which the values for the IC50 at human plasma kallikrein (values in nM) and at Factor XIa were 0.0114 µM and 2.2 nM, respectively.

As for `Cc1nc(N)c(F)cc1-c1cnc([C@H]2C[C@@H](C)c3nc(-c4c(-n5cnnn5)ccc(Cl)c4F)cc(=O)n32)[nH]1` (stereo in doubt) [Example 128, (6*R,8*R)-6-(5-(6-Amino-5-fluoro-2-methylpyridin-3-yl)-1H-imidazol-2-yl)-2-(3-chloro-2-fluoro-6-(1H-tetrazol-1-yl)phenyl)-8-methyl-7,8-dihydropyrrolo[1,2-a]pyrimidin-4(6H)-one], the results for the IC50 on human plasma kallikrein (values in nM) and on Factor XIa were 0.747 µM and 283 nM, respectively.

As for `O=c1cc(-c2c(-n3cnnn3)ccc(Cl)c2F)cc2n1[C@H](c1ncc(-c3ccnc(CO)c3F)[nH]1)CC21CC1` [Example 7, (S)-7′-(3-Chloro-2-fluoro-6-(1H-tetrazol-1-yl)phenyl)-3′-(5-(3-fluoro-2-(hydroxymethyl)pyridin-4-yl)-1H-imidazol-2-yl)-2′,3′-dihydro-5′H-spiro[cyclopropane-1,1′-indolizin]-5′-one], the figures for the IC50 at human plasma kallikrein (values in nM) and at Factor XIa were 0.038 µM and 6.9 nM, respectively.

These data come from patent publication US20230097157A1, “Bicyclic Pyridin-2-one and pyrimidin-4-one Derivatives Useful As a Factor XIa Inhibitors” (Janssen Pharmaceutica NV, priority 2021, published 2023).
